Where two headings read alike, the source gives them in different places.

The subject of the experiment is JAK1/JAK3: IL-2 stimulated STAT5 phosphorylation. Kind of experiment: JAK1/JAK3: IL-2 stimulated STAT5 phosphorylation in PBMCs. The format is cell-based, human. To be noted: PBMC. As to the method: Example B: JAK1/JAK3: IL-2 Stimulated STAT5 Phosphorylation in PBMCs
Human PBMCs: (Precision Biomedicine)
Thaw as per instructions. Thaw frozen PBMCs in 37° C. water bath. Transfer cell suspension to 9 mL of pre-warmed complete media (RPMI+10% FBS+L-Glu+Pen/Strep). Centrifuge at 400×g for 5 min and wash cells with 10 mL of complete media. Resuspend pellet for a cell-count of 3×10^6 cells/mL
Seed cells into 96-deep well at 80 uL/well based on experimental plate layout. Add 10 μL of (10× conc.) of different concentrations of compounds to all wells except controls (unstimulated) and mix it with 200 uL multichannel pipet. Add 10 uL of complete RPMI media with same % DMSO in controls. For dilution of compounds and dilution range please refer to appendix. Incubate in 5% CO2 incubator for 1 hour at 37° C. Add 10 μL of (10× conc.) IL-2 (final conc. 50 ng/mL) to each well except unstimulated and unstained controls and incubate further for 20 minutes in water bath at 37° C.
Add 900 μL of prewarmed 1× Fix/Lyse solution (Appendix) and mix it properly using 1000 μL multichannel pipet; incubate further on water bath at 37° C. for 10 minutes. Centrifuge at 800×g for 5 minutes, remove 900 uL of supernatant, and add 1000 μL of freshly prepared wash buffer or 1× PBS. Centrifuge at 800×g for 5 minutes, remove 900 μL of supernatant, and resuspend the pellet in remaining buffer.
Disrupt the pellet by gentle tapping and add 1000 μL of ice cold BD Phosflow Perm Buffer III and incubate further on ice for 30 minutes. Centrifuge at 800×g for 5 minutes. Wash two more times with 1000 μL of BD Stain buffer, remove supernatant except 100 uL of buffer after the last wash.
Disrupt the pellet by gentle tapping, add 100 uL of stain buffer and 5 μL of pSTAT5_Alex488 […] in all appropriate wells and mix properly using 200 μL multichannel pipet. Incubate plate overnight at […]. Add 900 μL of BD stain buffer and centrifuge at 800×g for 5 minutes. Wash one additional time with 1000 μL of buffer. Finally resuspend the pellet in 300 uL of BD stain buffer.
Transfer the cells to 96-well v-bottom plate and acquire the cells in Beckman Coulter Cytoflex. Acquiring cells in Flow Cytometer: Keep the threshold value to 250. Acquire at least 8,000-10,000 cells.
RPMI 1640 Complete Medium: RPMI 1640 media+10% FBS.
Cytokine dilution: 1) IL-2 Stock at 100 ug/mL. Prepare a 0.5 ug/mL dilution by adding 5 uL of stock into 995 uL of cRPMI. Keep it on ice until used.
Lyse/Fix buffer preparation: Dilute 5× Lyse/Fix buffer to 1× using MQ water and keep at 37° C. until used.
BD Phosflow perm buffer III: Keep on ice/fridge

[1] abbreviates: human PBMCs, IL-2 50 ng/mL, pSTAT5 by flow cytometry, read-out: IL-2/J1J3/pS5: IC50 GeoMean.
Setting [2] is: Homo sapiens, read-out: IL-2/J1J3/pS5: IC50 GeoMean (nM).

Regarding `CC[C@H](Cn1ccc2cnc(Nc3cnn(CC(N)=O)c3)nc21)C(C)C` [Example 1, (S)-2-(4-((7-(2-ethyl-3-methylbutyl)-7H-pyrrolo[2,3-d]pyrimidin-2-yl)amino)-1H-pyrazol-1-yl) acetamide], the IC50 under setting [1] was less than 100 nM. On to `CC[C@H](Cn1ccc2cnc(Nc3cnn(CC(=O)N4CCOC4=O)c3)nc21)C(C)C` [Example 3, (5)-3-(2-(4-((7-(2-ethyl-3-methylbutyl)-7H-pyrrolo[2,3-d]pyrimidin-2-yl)amino)-1H-pyrazol-1-yl)acetyl) oxazolidin-2-one], for which, under setting [2], the IC50 is less than 100 nM. Take `CCC(CC)Cn1ccc2cnc(Nc3cnn(CC(N)=O)c3)nc21` [Example 7, 2-(4-((7-(2-ethylbutyl)-7H-pyrrolo[2,3-d]pyrimidin-2-yl)amino)-1H-pyrazol-1-yl) acetamide]: the IC50 under setting [1] is less than 100 nM. As for `CC[C@@H](Cn1ccc2cnc(Nc3cnn(C4CCNC4=O)c3)nc21)C(C)C` (stereo partly shown) [Example 8], the IC50 under setting [2] was less than 100 nM.
